Assays:
[1] = in vivo; cited from earlier work
DRD2L [2] = biological target: T1, DRD2L (Homo sapiens, UniProt P14416); test: antagonism of arrestin recruitment to DRD2L, Gaddam/Schild EC50 shift analysis; format: cell-based; set-up: expressed in transfected cells; details: dopamine completely reversed dose-dependent antagonism of up to 100 uM ONC201
Protocol: (§1) To test the target prediction, in vitro profiling of GPCR activity using a hetereologous reporter assay for arrestin recruitment, a hallmark of GPCR activation was performed.

other GPCRs = test: GPCR profiling, heterologous reporter assay for arrestin recruitment; format: cell-based; details: under the evaluated conditions
Protocol: as §1

[3] = test system: D1-like (DRD1/5) subfamily of dopamine receptors; test: as above; format: cell-based
Protocol: as §1

[4] = test system: nuclear hormone receptors, the kinome, or other drug targets of FDA-approved cancer therapies
[5] = test system: short and long isoforms of DRD2; details: arrestin recruitment
Protocol: as §1

[6] = test system: D2-like (DRD2/3/4) subfamily of dopamine receptors; details: arrestin recruitment
Protocol: as §1

DRD2L [7] = biological target: T1, DRD2L
breast cancer patients = details: recent clinical trials; cited from earlier work

T1 sequence (P14416 whole entry): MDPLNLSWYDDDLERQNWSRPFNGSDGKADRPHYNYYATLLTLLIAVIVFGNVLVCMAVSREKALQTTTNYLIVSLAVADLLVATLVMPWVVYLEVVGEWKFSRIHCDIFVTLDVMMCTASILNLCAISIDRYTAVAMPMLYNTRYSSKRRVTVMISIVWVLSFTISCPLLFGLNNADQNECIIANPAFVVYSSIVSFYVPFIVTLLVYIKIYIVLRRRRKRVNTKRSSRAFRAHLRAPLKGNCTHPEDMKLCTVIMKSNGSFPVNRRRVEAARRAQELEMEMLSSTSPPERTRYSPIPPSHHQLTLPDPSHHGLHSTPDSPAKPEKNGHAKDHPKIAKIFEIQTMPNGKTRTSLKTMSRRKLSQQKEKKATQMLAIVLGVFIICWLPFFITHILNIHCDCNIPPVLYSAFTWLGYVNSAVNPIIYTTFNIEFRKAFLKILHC

SMILES: CN(CCOc1ccc(CC2SC(=O)NC2=O)cc1)c1ccccn1 (centres unmarked) [rosiglitazone]
- associated adverse event [1]: elevated risk of heart attack

SMILES: CC(C)C[C@H](NC(=O)[C@H](Cc1ccccc1)NC(=O)c1cnccn1)B(O)O [bortezomib]
- associated adverse event [1]: peripheral neuropathy

SMILES: Cc1ccccc1CN1C(=O)C2=C(CCN(Cc3ccccc3)C2)N2CCN=C12 [ONC201]
- mode of antagonism of DRD2L (DRD2L [2]): direct, competitive antagonism
- antagonism of other GPCRs (other GPCRs): no observed antagonism
- antagonism of D1-like dopamine receptors [3]: not D1-like
- interactions with nuclear hormone receptors, kinome, other cancer drug targets [4]: no significant interactions
- antagonism of DRD2 short and long isoforms [5]: antagonized
- antagonism of D2-like dopamine receptors [6]: selectively antagonizes
- cAMP modulation in response to compound (DRD2L [7]): Confirmatory results

SMILES: CC(=O)O[C@@]12CO[C@@H]1C[C@H](O)[C@@]1(C)C(=O)[C@H](O)C3=C(C)[C@@H](OC(=O)[C@H](O)[C@@H](NC(=O)OC(C)(C)C)c4ccccc4)C[C@@](O)([C@@H](OC(=O)c4ccccc4)[C@H]21)C3(C)C [docetaxel]
- associated adverse event [1]: neutropenia

SMILES: C=C1C[C@@H]2CC[C@@]34C[C@H]5O[C@H]6[C@@H](O3)[C@H]3O[C@H](CC[C@@H]3O[C@H]6[C@H]5O4)CC(=O)C[C@@H]3[C@@H](OC)[C@@H](C[C@H](O)CN)O[C@H]3C[C@H]3O[C@@H](CC[C@@H]1O2)C[C@@H](C)C3=C [Eribulin]
- breast cancer patients showing any detectable response after treatment (breast cancer patients): < 50%
